The results in this text go back to PubChem BioAssay AID179 (DTP/NCI, 2004).

For this test, the system named is CEM cells HIV-1 protection, formazan growth assay. The test is described as follows: NCI AIDS Antiviral Assay. Conditions: for pIC50: measured here: growth of uninfected CEM cells. The procedure, abridged:
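Human CEM cells, uninfected and HIV-1-infected, exposed to five drug concentrations; growth measured by soluble formazan assay and scored as percent protection from infection, with protecting compounds retested.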

SMILES strings stand for the structures. pEC50, pIC50: −log10 of the molar value. Active and inactive are the calls of the source.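 How the source made its calls: active means compounds giving half or more protection of infected cells from virus-caused growth loss, again on retest; inactive means the rest.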

Take `Cc1ccc(C2CC3(c4ccccc4)ON=C(c4ccccc4)N3c3ccccc3S2)cc1` (stereo not given): the pEC50 was below 3.70 and the negative-log IC50 (pIC50) was 4.38.

Turning to `Cc1cccc(C(C)C)c1NC(=O)CC1C(=O)Nc2ccccc2S1(=O)=O` (stereo not given), the pEC50 was below 5.15 and the negative logarithm of the IC50 (pIC50) is below 5.15. On to `CCOC(=O)NC(=O)c1cn(CCSCCOC(=O)NCCCCCCNC(=O)OCCSCCn2cc(C(=O)NC(=O)OCC)c(=O)n(C)c2=O)c(=O)n(C)c1=O`, for which the pEC50 is below 5.08 and the pIC50 is below 5.08. Take `Nc1nc(Cl)cc(NCC2(CO)CCC(O)C2)n1` (stereo not given): the pEC50 was below 3.70 and the pIC50 is below 3.70. With `C[N+](C)(C)CC(=O)N/N=C(/C=C/c1ccccc1)CC1OC(=O)c2ccccc21` (stereo not given), the pEC50 is below 3.23 and the negative-log IC50 (pIC50) is below 3.23. For `c1ccc(Cc2nc3ccccc3[nH]2)cc1`, the pEC50 was below 4.46 and the pIC50 was below 4.46. As to `Cc1cccc(C)c1NC(=O)C1=NC(=S)NC(c2ccccc2)C1c1nc2ccccc2s1` (stereo not given), the outcome was inactive. Regarding `CCOC(=O)c1cc(-c2ccc([N+](=O)[O-])cc2)c([N+](=O)[O-])[nH]1`, the pEC50 is below 3.70 and the pIC50 was 5.10. As for `CC(C)CC(NC(=O)C(Cc1ccccc1)NC(=O)CNC(=O)CNC(=O)C(N)Cc1ccc(O)cc1)C(=O)NC1C(O)OC(CO)C(O)C1O` (stereo not given), the pEC50 was below 2.66 and the pIC50 is below 2.66.

On to `CC(=O)[O-].O=S(=O)(Nc1ncccn1)c1ccc(N=Cc2ccccc2O)cc1.O=S(=O)(Nc1ncccn1)c1ccc(N=Cc2ccccc2O)cc1.[Cu+2]`, for which the pEC50 was below 3.70 and the pIC50 was 4.42.

For `S=c1sscc1-c1ccccc1`, the pEC50 is below 3.70 and the pIC50 was 3.73. The matching figures for `C=C(C)[C@@H]1CC[C@]2(CNC(=O)CC3(CC(=O)O)CCCC3)CC[C@]3(C)[C@H](CC[C@@H]4[C@@]5(C)CC[C@H](NC(=O)CC6(CC(=O)O)CCCC6)C(C)(C)[C@@H]5CC[C@]43C)[C@@H]12`: below 3.70 and 4.87. For `COP(C)(=O)C(Cc1c[nH]c2ccccc12)NC(=O)OCc1ccccc1` (stereo not given), the pEC50 is below 3.70 and the pIC50 is below 3.70.

For `CCC1c2cc3n(c(=O)c2COC1O)Cc1c-3nc2ccccc2c1Cl` (stereo not given), the pEC50 was below 5.00 and the negative-log IC50 (pIC50) is 5.20. In the same order, the values of `O=C(/C(=C/c1ccc([N+](=O)[O-])cc1)c1ccccc1)c1ccccc1` are below 5.08 and 5.28. Turning to `Cc1ccc(-n2c(Cn3nnc(-c4cccnc4)n3)nn(C3OC(COC(=O)c4ccccc4)C(OC(=O)c4ccccc4)C3OC(=O)c3ccccc3)c2=S)cc1` (stereo not given), the pEC50 is below 3.70 and the negative-log IC50 (pIC50) is below 3.70.

As for `COC1C(O)CC(OC2CC(OC3CC(O[C@@H]4C(=O)c5c(cc6cc(OC7CC(OC8CC(O)C(O)C(C)O8)C(O)C(C)O7)c(C)c(O)c6c5O)C[C@H]4[C@H](OC)C(=O)[C@@H](O)[C@@H](C)O)OC(C)C3O)OC(C)C2O)OC1C` (stereo not given in full), the pEC50 was below 6.78 and the negative logarithm of the IC50 (pIC50) is 7.96. For `COc1ccc(Nc2nc(NS(=O)(=O)c3cc(C)c(Cl)cc3S)n[nH]2)cc1`, the negative logarithm of the EC50 (pEC50) is 3.75 and the pIC50 was 3.59. The matching figures for `Nc1ccc(O)c(C(=O)[O][Sn]([c]2ccccc2)([c]2ccccc2)[c]2ccccc2)c1`: below 5.70 and 6.89. In the same order, the values of `CN(C)CCn1c(=O)c2ccc(NCCNCCO)c3c(=O)c4cc(O)ccc4n(c1=O)c23` are below 5.70 and 6.39. In the case of `CC(C)(C)C1CCC2(CC1)CCN(N1CCCCCC1)CC2`, the pEC50 is below 4.00 and the negative-log IC50 (pIC50) is 4.04. The matching figures for `COc1cc2c(c(OC)c1OC)-c1ccc(OC)c(=O)cc1C([N+](C)(C)C)CC2` (stereo not given): below 3.70 and 4.96.

For `CCC(C)[N-]c1cccc[n+]1[O-].CCC(C)[N-]c1cccc[n+]1[O-].[Cu+2]` (stereo not given), the pEC50 is below 3.70 and the pIC50 was 4.08. The matching figures for `O=C(O)CCC(NC(=O)c1ccc(CNc2nc3ccccc3nc2C(=O)O)cc1)C(=O)O` (stereo not given): below 3.70 and below 3.70. Turning to `NCCCCNCCCN1CC1`, the pEC50 was below 3.70 and the pIC50 is 6.83. On to `COc1cc2c(cc1OC)C13CC[N+]4(C)CC5=CCOC6CC(=O)N2C1C6C5CC34[O-]` (stereo not given), for which the outcome was inactive. Take `COc1cc(/C=C2\CCC(C)c3c2nc(N)c(C#N)c3-c2cc(OC)c(OC)c(OC)c2)cc(OC)c1OC` (stereo not given): the result was inactive. Regarding `c1ccc(OCC[P+](c2ccccc2)(c2ccccc2)c2ccccc2)cc1`, the pEC50 was below 3.70 and the negative logarithm of the IC50 (pIC50) was 6.30.

On to `COc1ccc2c(c1)c1c(n2CCN2CCOCC2)-c2ccccc2CC1`, for which the result was inactive.

Consider `COc1ccc(/C=C2\CSC(=O)NC2=O)cc1OC`, for which the pEC50 is below 3.05 and the pIC50 is 3.62. The matching figures for `O=C1/C(=C\c2ccccc2Cl)CCCC/C1=C\c1ccccc1Cl`: below 3.70 and 3.78. The matching figures for `O=C(O)c1ccc(CSc2ccccc2C(=O)O)cc1`: below 3.90 and below 3.90.

As for `CC(=O)/C=C/CCC1CCC(=O)C1(C)C(=O)OC(C)(C)C` (stereo not given), the pEC50 was below 3.94 and the pIC50 is 4.40. The matching figures for `CC1(C)O[C@H]2OC(CO)C(N=[N+]=[N-])[C@H]2O1` (stereo not given in full): below 3.70 and below 3.70. In the same order, the values of `Cc1ncc2c[n+]([O-])ccn12` are below 2.78 and below 2.78. In the case of `O=C1Nc2ccccc2N=CC1NC(=O)C(c1ccccc1)c1ccccc1` (stereo not given), the pEC50 is below 3.59 and the negative-log IC50 (pIC50) is 3.65. The matching figures for `CN(C)c1ccc(C=Nc2ccc(SSc3ccc(N=Cc4ccc(N(C)C)cc4)cc3)cc2)cc1`: below 3.70 and 4.60. The matching figures for `COC(=O)OCC1C=CC(n2cnc3c(Cl)ncnc32)CC1` (stereo not given): below 3.70 and 4.94. In the same order, the values of `CC1(C)OP(=O)(O)C=C1[Se]c1ccccc1` are below 3.49 and below 3.49.

On to `CC(Cl)(/C=C/Cl)C(Cl)/C=C/C(Cl)(CCl)CBr` (stereo not given), for which the result was inactive.

As for `COC(=O)Nc1cn2cc(C(=O)c3cccs3)ccc2n1`, the pEC50 is below 5.04 and the pIC50 is 7.48.

For `NC(=S)/N=C/C1=C(O)CCCC1=O`, the pEC50 is below 3.70 and the pIC50 was below 3.70.

With `COc1ccc2c(=O)c(O)c(-c3ccc(OC)c(OC)c3)oc2c1`, the pEC50 was below 3.70 and the pIC50 is below 3.70. Regarding `S=c1nc[nH]c2nc[nH]c12`, the pEC50 is below 3.63 and the pIC50 is 5.82. In the same order, the values of `Cc1[nH]nc2c1NC(=O)OC2` are below 2.93 and below 2.93. In the same order, the values of `Cc1c(CCl)c(=O)oc2c(C)c3occ(CCl)c(=O)c3cc12` are below 4.95 and 5.31.

For the molecule `CC(=O)CC1(O)C(=O)Nc2ccccc21` (stereo not given), the pEC50 is below 3.70 and the pIC50 is below 3.70. In the case of `OCC1OC(n2ccc3c2ncn2cnnc32)C(O)C1O` (stereo not given), the pEC50 was below 3.51 and the pIC50 was 4.53. For the molecule `COC(=O)C1CCCC2(C1)OCCO2` (stereo not given), the pEC50 was below 3.60 and the pIC50 was below 3.60. With `COc1ccc2[nH]c3c(c2c1)[C@H](c1ccccc1)C[C@@H]1C(=O)N(c2ccccc2)C(=O)[C@H]31`, the outcome was inactive. Consider `c1ccc2c(c1)c(N1CCCCC1)cc1nc3c(cc(N4CCCCC4)c4ccccc43)nc12`, for which the pEC50 is below 4.00 and the pIC50 is below 4.00.

With `COc1ccc(/C(=N/O)C(c2ccc(OC)cc2)C2C(=O)Oc3ccccc32)cc1` (stereo not given), the pEC50 is below 4.75 and the pIC50 is below 4.75. With `NC(N)=N/N=C/c1c(-c2ccc(Cl)cc2)nc2sccn12`, the pEC50 is below 3.70 and the pIC50 was 5.47. The matching figures for `C=C[C@H]1C=Cc2ccccc2[C@]1(C=O)CCC1(C)OCCO1`: below 3.08 and 3.17.

Turning to `C/C(=C\CO)CCC1=C(C=O)C[C@H](OC2OCC(O)C(O)C2O)C2[C@@](C)(CO)CCC[C@]12C` (stereo not given in full), the pEC50 is below 3.58 and the pIC50 was below 3.58. Consider `CC1CC/C(=[N+](/C)Nc2ccc([N+](=O)[O-])cc2[N+](=O)[O-])C2CCC(C(C)C(=O)O)C=C12` (stereo not given), for which the outcome was inactive. On to `C=C1CCc2ccccc2C1=O`, for which the pEC50 is below 3.70 and the pIC50 was 4.50. In the case of `COc1cc2oc(=O)cc(C)c2cc1[N+](=O)[O-]`, the pEC50 is below 4.27 and the pIC50 was 4.66. In the same order, the values of `C=C1CN(S(=O)(=O)c2ccc(C)cc2)CCCN(Cc2ccccn2)CCCN(S(=O)(=O)c2ccc(C)cc2)C1` are below 3.70 and below 3.70. As to `NS(=O)(=O)c1nnc(/N=C(/CCC(=O)O)C(=O)O)s1`, the pEC50 was below 3.70 and the pIC50 was below 3.70. Take `C=C(C)[C@@H]1CC[C@@H](C)[C@](O)([C@@H]2C[C@@H]([C@H](COC(=O)c3ccccc3)OC(=O)c3ccccc3)OC2=O)C1`: the pEC50 was below 4.00 and the pIC50 was below 4.00.

`O=C1OC(=O)c2c1c(-c1ccccc1)cn2-c1ccc(Cl)cc1`: the outcome was inactive. In the case of `CCNc1cc2c3c(c1)CCN3CCC2`, the pEC50 was below 4.22 and the negative-log IC50 (pIC50) is 4.99. Regarding `COC(=O)/C(C#N)=C/c1ccco1`, the pEC50 is below 3.70 and the pIC50 is below 3.70. As for `CCOC(=O)C(C)(C)Oc1ccc2c(-c3ccccc3)cc(=O)oc2c1`, the pEC50 is below 4.69 and the pIC50 is below 4.69. In the case of `C=CCn1c(-c2ccc([N+](=O)[O-])cc2)cs/c1=N\C(P(=O)(O)O)P(=O)(O)O`, the pEC50 was below 3.70 and the pIC50 is below 3.70.

`CCc1c(CNC2=NCCN2)c(CC)c(CNC2=NCCN2)c(CC)c1CNC1=NCCN1`: the pEC50 is below 3.70 and the pIC50 was below 3.70. Regarding `N=c1oc2ccc3ccccc3c2cc1C(N)=S`, the pEC50 is below 3.70 and the pIC50 is 5.02. In the same order, the values of `CCOC(=O)C1=Nc2ccccc2N=C(C2C(=O)C=C(C)OC2=O)C1` (stereo not given) are below 3.70 and below 3.70.
